One experiment deals with PA14 RSCV. The experiment is described as follows: Resistance of PA14 RSCV colonies to antibiotics on plates. It counts as cell-based, Pseudomonas aeruginosa. The following applies: for resistance of PA14 RSCV colonies: 8 individual colonies. How it is done: To induce such phenotypic variants, an overnight culture of P. aeruginosa strain PA14 (UCBPP-PA14) was inoculated onto Luria-Bertani (LB) containing 200 μg/ml of kanamycin, incubated at 37° C. for 48 hours, at which time, antibiotic resistant rough small variants were isolated. Antibiotic resistant colonies arose at a frequency of 10^−6-10^−7. […] In addition to being resistant to kanamycin, (up to 40 times the susceptibility level of the wild-type), 8 individual PA14 RSCV colonies tested were also resistant to amikacin (30 μg/ml), carbenicillin (300 μg/ml), gentamicin (30 μg/ml), tobramycin (10 μg/ml), and tetracycline (150 μg/ml). Consistent with this latter result, antibiotic resistant variants were also obtained at frequencies of about 10^−7 by plating overnight cultures of PA14 on media containing similar concentrations of the antibiotics mentioned above.

Experiment [1] concerns P. aeruginosa small colony variants in CF sputum samples. The experiment is described as follows: Antibiotic resistant small colony variants in CF sputum samples plated on cetrimide agar with and without antibiotics. It counts as cell-based, Pseudomonas aeruginosa. How it is done: Five CF sputum samples from the Clinical Microbiology Laboratory at Massachusetts General Hospital were suspended in 5 ml of 10 mM MgSO4. Serial dilutions of the samples were then plated onto cetrimide agar plates with and without antibiotics. The plates were screened for the presence of P. aeruginosa after 24 and 48 hours of incubation at 37° C. The identity of the colonies was later confirmed by probing colony lifts with the exotoxin A gene from P. aeruginosa. To this end, the EcoRI-HindIII fragment of plasmid pRGI containing the exoA gene (Samadpour et al., J. Clin. Microbiol. 26:2319-23, 1988) was gel isolated and labeled using a random priming kit (Boehringer, Mannheim, Indianapolis, Ind.). Colonies were transferred to nylon membranes and hybridizations were performed according to the manufacturer's recommendations (NEN Research Products, Boston, Mass.). Identification of colonies carrying the exoA gene was then performed using a Phosphorimager (Amersham Pharmacia Biotech Inc., Piscataway, N.J.).
The presence of P. aeruginosa antibiotic resistant small colony variants was determined by plating CF sputum samples on cetrimide agar with and without the indicated antibiotics. […]

The test system of another experiment is wild-type PA14. The experiment is described as follows: Minimal inhibitory concentration of kanamycin in liquid culture. The experiment is classed as cell-based. The following applies: Pseudomonas aeruginosa; PA14 in M63 liquid medium; read-out: concentration of kanamycin required to inhibit growth (MIC). How it is done: Phenotypic variation is a common phenomenon in Gram-negative bacteria that often involves environmentally regulated changes in observable phenotypes produced by modifications in surface components. The effect that different environmental stimuli had on the appearance of kanamycin-resistant phenotypic variants was examined. Bacteria were grown in LB broth, or in supplemented LB with appropriate antibiotics at the indicated temperature with aeration. […] Moreover, the frequency of variants increased 200-fold when plates were incubated at 25° C. compared to 37° C. (FIG. 2A). Finally, a dramatic 10^6-fold increase was obtained on minimal M63 salts as compared to LB medium (FIG. 2A). Minimal salt media consisted of M63 supplemented with 0.3% glucose, 1 mM MgSO4, and 0.5% casamino acids. Importantly, there was a correlation between the frequency of appearance of kanamycin resistant variants on plates and minimal inhibitory concentrations (MICs) of kanamycin in liquid culture for the wild-type PA14 using the culture conditions described above (FIG. 2B).

Experiment [2] concerns PA14 and PA14 RSCV biofilms. The experiment can be described thus: Biofilm resistance to tobramycin in flow chambers (viable biomass by CSLM of GFP-tagged cells). The experiment is classed as cell-based, Pseudomonas aeruginosa. The settings on record: continuous flow of tobramycin 200 μg/ml on established biofilms. How it is done: To determine whether the antibiotic resistant phenotype of PA14 RSCV is associated with altered biofilm formation, PA14 RSCV was cultured under biofilm-forming conditions as follows. For biofilm characterization, PA14 RSCV biofilms were cultivated under continuous culture conditions in flow-chambers with channel dimensions of 12 by 52 by 2 mm. Flow media consisted of M63 supplemented with 0.5% casamino acids and 0.3% glucose. For measurement of biofilm resistance, bacteria were cultivated in flow-chambers with channel dimensions of 1 by 40 by 4 mm (Stovall Inc., Greensboro, N.C.). In this case, flow media consisted of FAB medium (0.1 mM CaCl2, 0.01 mM Fe-EDTA, 0.15 mM NH4SO4, 0.33 mM Na2HPO4, 0.2 mM KH2PO4 and 1 mM MgCl2) supplemented with casamino acids (0.5%) and sodium citrate (10 mM). Flow-cells in both cases were inoculated with 100-fold dilutions of overnight cultures of PA14 and PA14 RSCV carrying the green fluorescent protein (GFP) in plasmid SMC21, a derivative of pSMC2 (Bloemberg et al., Appl. Environ. Microbiol. 63: 4543-4551, 1997). […] The volume (in μm^3) of individual biofilm structures was determined from serial sections using ImageSpace software (Molecular Dynamics, Sunnyvale, Calif.).
Viable biomass was measured by CSLM analysis of GFP-tagged PA14 and PA14 RSCV cells using GFP expression as a viability marker as described previously (FIG. 1E).

The mark [3] stands for this setting: Sample 5, patient on Amikacin(IV)/Ceftazidime(IV).
Setting [4] is: Sample 38, patient on Tobramycin (I)/Levofloxacin.
The mark [5] stands for this setting: Sample 41, no antibiotic treatment.
The mark [6] stands for this setting: Sample 42, no antibiotic treatment.
The mark [7] stands for this setting: Sample 43, no antibiotic treatment.

Values after ≈ are worked out from the molar mass of the structure shown.

Turning to `NCC[C@H](O)C(=O)N[C@@H]1C[C@H](N)[C@@H](O[C@H]2O[C@H](CN)[C@@H](O)[C@H](O)[C@H]2O)[C@H](O)[C@H]1O[C@H]1O[C@H](CO)[C@@H](O)[C@H](N)[C@H]1O` [amikacin], the “resistance of PA14 RSCV colonies” value in the experiment with PA14 RSCV (amikacin 30 μg/ml) was “resistant”. For the same compound, the “Variants resistant to antibiotic (%)” value in experiment [1] (setting [3]) is on record as 100%; in experiment [1] (setting [4]), 100%; in experiment [1] (setting [5]), 15%; in experiment [1] (setting [6]), 5%; in experiment [1] (setting [7]), 0.2%.
Turning to `CC1(C)S[C@@H]2[C@H](NC(=O)C(C(=O)O)c3ccccc3)C(=O)N2[C@H]1C(=O)O` (some centres unmarked) [carbenicillin], the “resistance of PA14 RSCV colonies” value with PA14 RSCV (carbenicillin 300 μg/ml) is “resistant”.
Turning to `NC[C@H]1O[C@H](O[C@H]2[C@H](O)[C@@H](O[C@H]3O[C@H](CO)[C@@H](O)[C@H](N)[C@H]3O)[C@H](N)C[C@@H]2N)[C@H](O)[C@@H](O)[C@@H]1O` [kanamycin], the “resistance to kanamycin relative to the susceptibility level of the wild-type” value in the experiment on PA14 RSCV (PA14 RSCV colonies) is on record as “up to 40 times”. Also, the MIC in the experiment with wild-type PA14 turned out to be 475 µg/mL (≈ 980 µM).
`CN(C)[C@@H]1C(O)=C(C(N)=O)C(=O)[C@@]2(O)C(O)=C3C(=O)c4c(O)cccc4[C@@](C)(O)[C@H]3C[C@@H]12` [tetracycline]: the “Variants resistant to antibiotic (%)” value in experiment [1] (setting [3]) is reported as 30%; in experiment [1] (setting [4]) it was 32%; in experiment [1] (setting [5]) it was 0%; in experiment [1] (setting [6]) it was 0%.
With `NC[C@H]1O[C@H](O[C@H]2[C@H](O)[C@@H](O[C@H]3O[C@H](CO)[C@@H](O)[C@H](N)[C@H]3O)[C@H](N)C[C@@H]2N)[C@H](N)C[C@@H]1O` [tobramycin], the “resistance of PA14 RSCV colonies” value in the experiment on PA14 RSCV (tobramycin 10 μg/ml) is given as “resistant”. The “resistance of PA14 RSCV biofilm to tobramycin treatment versus wild-type PA14 biofilm” value in experiment [2] is “more resistant”. Moreover, the “Variants resistant to antibiotic (%)” value worked out at 50% in experiment [1] (setting [3]); 100% in experiment [1] (setting [4]); 0.10% in experiment [1] (setting [5]); 0% in experiment [1] (setting [6]); 0.5% in experiment [1] (setting [7]).
Regarding gentamicin, the “resistance of PA14 RSCV colonies” value with PA14 RSCV (gentamicin 30 μg/ml) was “resistant”. In addition, the “Variants resistant to antibiotic (%)” value in experiment [1] (setting [3]) is on record as 100%; in experiment [1] (setting [4]), 100%; in experiment [1] (setting [5]) it was 10%; in experiment [1] (setting [6]), 6.6%; in experiment [1] (setting [7]), 0.5%.

(Values after patent US20050202424A1, “Regulators of biofilm formation and uses thereof” (priority 2001, published 2005).)
